Source: the supplement of paper PMC6045584
± gives the standard deviation of the averaged measurements.

Experiments:
OSI-906 [1] = compound: T1, C[C@]1(O)C[C@@H](c2nc(-c3ccc4ccc(-c5ccccc5)nc4c3)c3c(N)nccn32)C1 [OSI-906]; test: surviving fraction relative to DMSO-only wells; higher = less growth inhibition; conditions: exposure time: 5 days
Procedure, shortened: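 Lines were retained only if, across three screens, replicate Pearson r was >0.7 and median Z' was >0.3. Viability was measured as CellTiter-Glo luminescence and reported as surviving fraction relative to the median of DMSO-only wells. Readings followed 10 minutes at room temperature, after log-phase tumour cells seeded at 250–500 per well in 384-well plates had been exposed, from 24 hours after seeding, continuously for five days to inhibitors at 0.5, 1, 5, 10, 50, 100, 500 and 1000 nM.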

[2] = compound: CC(=O)NCC(=O)N1[C@@H]2CC[C@H]1c1ccc(Nc3ncc(C(F)(F)F)c(NC4CCC4)n3)cc12; test: area under dose-response curve of surviving fraction (unscaled, Aref=0) (surviving fraction x log10(nM)); higher = more resistant; conditions: exposure time: 5 days; dose range 0.5-1000 nM
Procedure, shortened: (§1)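 Surviving fractions were fitted by 3-parameter logistic regression in the drc R package to give dose-response survival curves. They came from tumour cell lines treated for five days with eight inhibitor concentrations from 0.5 to 1000 nM and read by CellTiter-Glo luminescence against DMSO-only wells. The area under the curve is the unscaled activity area. It was calculated over log10 dose with Aref = 0.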

PACLITAXEL = compound: CC(=O)O[C@H]1C(=O)[C@@]2(C)[C@H]([C@H](OC(=O)c3ccccc3)[C@]3(O)C[C@H](OC(=O)[C@H](O)[C@@H](NC(=O)c4ccccc4)c4ccccc4)C(C)=C1C3(C)C)[C@]1(OC(C)=O)CO[C@@H]1C[C@@H]2O [PACLITAXEL]; test: as above; conditions: exposure time: 5 days; dose range 0.5-1000 nM
Procedure, shortened: as §1

[3] = compound: CC(=O)c1c(C)c2cnc(Nc3ccc(N4CCNCC4)cn3)nc2n(C2CCCC2)c1=O; test: as above; conditions: exposure time: 5 days; dose range 0.5-1000 nM
Procedure, shortened: as §1

CAMPTOTHECIN = compound: CC[C@@]1(O)C(=O)OCc2c1cc1n(c2=O)Cc2cc3ccccc3nc2-1 [CAMPTOTHECIN]; test: as above; conditions: exposure time: 5 days; dose range 0.5-1000 nM
Procedure, shortened: as §1

YM155 = compound: COCC[n+]1c2c(n(Cc3cnccn3)c1C)C(=O)c1ccccc1C2=O [YM155]; test: as above; conditions: exposure time: 5 days; dose range 0.5-1000 nM
Procedure, shortened: as §1

GEFITINIB = compound: COc1cc2ncnc(Nc3ccc(F)c(Cl)c3)c2cc1OCCCN1CCOCC1 [GEFITINIB]; test: as above; conditions: exposure time: 5 days; dose range 0.5-1000 nM
Procedure, shortened: as §1

OSI-906 [4] = compound: T1, OSI-906; test: as above; conditions: exposure time: 5 days; dose range 0.5-1000 nM
Procedure, shortened: as §1

CELECOXIB = compound: Cc1ccc(-c2cc(C(F)(F)F)nn2-c2ccc(S(N)(=O)=O)cc2)cc1 [CELECOXIB]; test: as above; conditions: exposure time: 5 days; dose range 0.5-1000 nM
Procedure, shortened: as §1

CARBOPLATIN = compound: O=C(O)C1(C(=O)O)CCC1.[NH2-].[NH2-].[Pt+2] [CARBOPLATIN]; test: as above; conditions: exposure time: 5 days; dose range 0.5-1000 nM
Procedure, shortened: as §1

OSHN BONE
surviving fraction (OSI-906 [1]; 0.5 nM): 0.887 ± 0.024 | surviving fraction (OSI-906 [1]; 1 nM): 0.912 ± 0.026 | surviving fraction (OSI-906 [1]; 5 nM): 0.902 ± 0.028 | surviving fraction (OSI-906 [1]; 10 nM): 0.884 ± 0.046 | surviving fraction (OSI-906 [1]; 50 nM): 0.945 ± 0.0072 | surviving fraction (OSI-906 [1]; 100 nM): 0.927 ± 0.013 | surviving fraction (OSI-906 [1]; 500 nM): 0.758 ± 0.012 | surviving fraction (OSI-906 [1]; 1000 nM): 0.732 ± 0.027 | area under dose-response curve [2]: 2.43 | area under dose-response curve (PACLITAXEL): 0.555 | area under dose-response curve [3]: 3.62 | area under dose-response curve (CAMPTOTHECIN): 0.918 | area under dose-response curve (YM155): 0.946 | area under dose-response curve (GEFITINIB): 3.72 | area under dose-response curve (OSI-906 [4]): 2.89 | area under dose-response curve (CELECOXIB): 3.7 | area under dose-response curve (CARBOPLATIN): 3.65

PCI30 HEADNECK
surviving fraction (OSI-906 [1]; 0.5 nM): 0.89 ± 0.027 | surviving fraction (OSI-906 [1]; 1 nM): 0.947 ± 0.022 | surviving fraction (OSI-906 [1]; 5 nM): 0.955 ± 0.076 | surviving fraction (OSI-906 [1]; 10 nM): 1.05 ± 0.074 | surviving fraction (OSI-906 [1]; 50 nM): 1.07 ± 0.051 | surviving fraction (OSI-906 [1]; 100 nM): 1.01 ± 0.077 | surviving fraction (OSI-906 [1]; 500 nM): 0.939 ± 0.075 | surviving fraction (OSI-906 [1]; 1000 nM): 0.931 ± 0.033 | area under dose-response curve [2]: 2.81 | area under dose-response curve (PACLITAXEL): 0.529 | area under dose-response curve [3]: 3.11 | area under dose-response curve (CAMPTOTHECIN): 1.92 | area under dose-response curve (YM155): 1.32 | area under dose-response curve (GEFITINIB): 2.84 | area under dose-response curve (OSI-906 [4]): 3.26 | area under dose-response curve (CELECOXIB): 3.38 | area under dose-response curve (CARBOPLATIN): 3.57

SAOS2 BONE
surviving fraction (OSI-906 [1]; 0.5 nM): 0.82 ± 0.027 | surviving fraction (OSI-906 [1]; 1 nM): 0.858 ± 0.013 | surviving fraction (OSI-906 [1]; 5 nM): 0.804 ± 0.085 | surviving fraction (OSI-906 [1]; 10 nM): 0.838 ± 0.045 | surviving fraction (OSI-906 [1]; 50 nM): 1.06 ± 0.018 | surviving fraction (OSI-906 [1]; 100 nM): 0.877 ± 0.066 | surviving fraction (OSI-906 [1]; 500 nM): 0.594 ± 0.016 | surviving fraction (OSI-906 [1]; 1000 nM): 0.522 ± 0.057 | area under dose-response curve [2]: 2.47 | area under dose-response curve (PACLITAXEL): 1.1 | area under dose-response curve [3]: 3.65 | area under dose-response curve (CAMPTOTHECIN): 1.2 | area under dose-response curve (YM155): 1.05 | area under dose-response curve (GEFITINIB): 3.62 | area under dose-response curve (OSI-906 [4]): 2.83 | area under dose-response curve (CELECOXIB): 3.78 | area under dose-response curve (CARBOPLATIN): 3.68

SCC36 HEADNECK
surviving fraction (OSI-906 [1]; 0.5 nM): 0.783 ± 0.039 | surviving fraction (OSI-906 [1]; 1 nM): 0.816 ± 0.062 | surviving fraction (OSI-906 [1]; 5 nM): 0.796 ± 0.083 | surviving fraction (OSI-906 [1]; 10 nM): 0.805 ± 0.055 | surviving fraction (OSI-906 [1]; 50 nM): 0.742 ± 0.076 | surviving fraction (OSI-906 [1]; 100 nM): 0.834 ± 0.066 | surviving fraction (OSI-906 [1]; 500 nM): 0.64 ± 0.19 | surviving fraction (OSI-906 [1]; 1000 nM): 0.57 ± 0.046 | area under dose-response curve [2]: 2.74 | area under dose-response curve (PACLITAXEL): 0.905 | area under dose-response curve [3]: 3.5 | area under dose-response curve (CAMPTOTHECIN): 1.36 | area under dose-response curve (YM155): 1.77 | area under dose-response curve (GEFITINIB): 2.61 | area under dose-response curve (OSI-906 [4]): 2.48 | area under dose-response curve (CELECOXIB): 3.53 | area under dose-response curve (CARBOPLATIN): 3.45

SCC90 HEADNECK
surviving fraction (OSI-906 [1]; 0.5 nM): 0.88 ± 0.033 | surviving fraction (OSI-906 [1]; 1 nM): 0.822 ± 0.075 | surviving fraction (OSI-906 [1]; 5 nM): 0.89 ± 0.096 | surviving fraction (OSI-906 [1]; 10 nM): 0.883 ± 0.026 | surviving fraction (OSI-906 [1]; 50 nM): 1.03 ± 0.098 | surviving fraction (OSI-906 [1]; 100 nM): 1.02 ± 0.027 | surviving fraction (OSI-906 [1]; 500 nM): 0.971 ± 0.019 | surviving fraction (OSI-906 [1]; 1000 nM): 0.981 ± 0.078 | area under dose-response curve [2]: 2.52 | area under dose-response curve (PACLITAXEL): 1.1 | area under dose-response curve [3]: 3.7 | area under dose-response curve (CAMPTOTHECIN): 1.77 | area under dose-response curve (YM155): 2.17 | area under dose-response curve (GEFITINIB): 2.63 | area under dose-response curve (OSI-906 [4]): 3.1 | area under dose-response curve (CELECOXIB): 3.43 | area under dose-response curve (CARBOPLATIN): 3.68

SG43 HEADNECK
surviving fraction (OSI-906 [1]; 0.5 nM): 1.21 ± 0.074 | surviving fraction (OSI-906 [1]; 1 nM): 1.18 ± 0.13 | surviving fraction (OSI-906 [1]; 5 nM): 0.829 ± 0.025 | surviving fraction (OSI-906 [1]; 10 nM): 0.987 ± 0.12 | surviving fraction (OSI-906 [1]; 50 nM): 0.695 ± 0.051 | surviving fraction (OSI-906 [1]; 100 nM): 0.665 ± 0.06 | surviving fraction (OSI-906 [1]; 500 nM): 0.697 ± 0.021 | surviving fraction (OSI-906 [1]; 1000 nM): 0.614 ± 0.021 | area under dose-response curve [2]: 2.61 | area under dose-response curve (PACLITAXEL): 1.9 | area under dose-response curve [3]: 2.84 | area under dose-response curve (CAMPTOTHECIN): 2.21 | area under dose-response curve (YM155): 2.35 | area under dose-response curve (GEFITINIB): 2.21 | area under dose-response curve (OSI-906 [4]): 2.7 | area under dose-response curve (CELECOXIB): 3.37 | area under dose-response curve (CARBOPLATIN): 3.37

SYO1 SYNOVIAL
surviving fraction (OSI-906 [1]; 0.5 nM): 0.795 ± 0.048 | surviving fraction (OSI-906 [1]; 1 nM): 0.814 ± 0.044 | surviving fraction (OSI-906 [1]; 5 nM): 0.832 ± 0.023 | surviving fraction (OSI-906 [1]; 10 nM): 0.824 ± 0.058 | surviving fraction (OSI-906 [1]; 50 nM): 0.838 ± 0.055 | surviving fraction (OSI-906 [1]; 100 nM): 0.897 ± 0.033 | surviving fraction (OSI-906 [1]; 500 nM): 0.897 ± 0.034 | surviving fraction (OSI-906 [1]; 1000 nM): 0.873 ± 0.016 | area under dose-response curve [2]: 1.98 | area under dose-response curve (PACLITAXEL): 0.539 | area under dose-response curve [3]: 3.14 | area under dose-response curve (CAMPTOTHECIN): 0.528 | area under dose-response curve (YM155): 1.25 | area under dose-response curve (GEFITINIB): 3.17 | area under dose-response curve (OSI-906 [4]): 2.64 | area under dose-response curve (CELECOXIB): 3.18 | area under dose-response curve (CARBOPLATIN): 3.25

T47D BREAST
surviving fraction (OSI-906 [1]; 0.5 nM): 0.9222 ± 0.0086 | surviving fraction (OSI-906 [1]; 1 nM): 0.933 ± 0.038 | surviving fraction (OSI-906 [1]; 5 nM): 0.9888 ± 0.0092 | surviving fraction (OSI-906 [1]; 10 nM): 0.917 ± 0.02 | surviving fraction (OSI-906 [1]; 50 nM): 0.982 ± 0.058 | surviving fraction (OSI-906 [1]; 100 nM): 0.954 ± 0.028 | surviving fraction (OSI-906 [1]; 500 nM): 0.868 ± 0.018 | surviving fraction (OSI-906 [1]; 1000 nM): 0.85 ± 0.018 | area under dose-response curve [2]: 3.44 | area under dose-response curve (PACLITAXEL): 1.04 | area under dose-response curve [3]: 3.62 | area under dose-response curve (CAMPTOTHECIN): 1.54 | area under dose-response curve (YM155): 1.68 | area under dose-response curve (GEFITINIB): 3.54 | area under dose-response curve (OSI-906 [4]): 3.09 | area under dose-response curve (CELECOXIB): 3.64 | area under dose-response curve (CARBOPLATIN): 3.42
